Data published in patent publication US20140349989A1, “COMPOUNDS AND THERAPEUTIC USES THEREOF” (Alzheimer's Institute of America, priority 2011, published 2014).

Assay: Cytotoxicity Assay (HCT116, CellTiter-Glo)
Type: cell-based
Settings: human, HCT116 cell cytotoxicity IC50
Procedure: HCT116 cells were seeded in 96 well plates (Greiner Bio-One, Monroe, N.C.) and allowed to settle overnight. Test compound dissolved in dimethyl sulfoxide (DMSO) was added and drug incubation proceeded for 72 hours. When applicable, a 1000× solution of nicotinic acid (NA; Sigma-Aldrich, St. Louis, Mo.) dissolved in water was generated, and 1×NA (10 μM final concentration) was added at the same time as the test compound. After 72 hour, 50 μL of CellTiter-Glo Luminescent Cell Viability Assay reagent (Promega Corporation, Madison, Wis.) was added to cells in 200 μL of cellular media. After a proscribed incubation period, luminescence was measured using a TopCount NXT plate reader (PerkinElmer, Waltham, Mass.).

`O=C(NCc1cccnc1)Nc1ccc(-c2cn(S(=O)(=O)c3cccnc3)c3ccccc23)cc1` [Compound 43, 1-(Pyridin-3-ylmethyl)-3-{4-[1-(pyridin-3-ylsulfonyl)-1H-indol-3-yl]phenyl} urea] and `O=C(NCc1cccnc1)Nc1ccc(-n2c(Cl)c(C(=O)N3CCC(n4ccnc4)CC3)c3ccccc32)cc1` [Compound 127, 1-[4-(2-Chloro-3-{[4-(1H-imidazol-1-yl)piperidin-1-yl]carbonyl}-1H-indol-1-yl)phenyl]-3-(pyridin-3-ylmethyl)urea] cannot be ordered by IC50 at 72 h: under 100 nM for the first, under 100 nM for the second.

`O=C(NCc1cccnc1)Nc1ccc(-n2cc(C(=O)N3CCC(O)CC3)c3ccccc32)c(Cl)c1` [Compound 88, 1-(3-Chloro-4-{3-[(4-hydroxy-piperidin-1-yl)carbonyl]-1H-indol-1-yl}phenyl)-3-(pyridin-3-ylmethyl)urea] and `O=C(NCc1cccnc1)Nc1ccc(-n2cc(C3CCN(CCO)CC3)c3ccccc32)cc1` [Compound 129, 1-(4-{3-[1-(2-Hydroxy-ethyl)piperidin-4-yl]-1H-indol-1-yl}phenyl)-3-(pyridin-3-ylmethyl)urea] cannot be ordered by IC50 at 72 h: at least 100 nM for the first, at least 100 nM for the second.

`O=C(NCc1cccnc1)Nc1ccc(-n2nc(N3CCC(CN4CCOCC4)CC3)c3ccccc32)cc1` [Compound 62, 1-(4-{3-[4-(Morpholin-4-ylmethyl)piperidin-1-yl]-1H-indazol-1-yl}phenyl)-3-(pyridin-3-ylmethyl)urea] and `O=C(NCc1cccnc1)Nc1ccc(-n2cc(CCN3CCCCC3)c3ccccc32)cc1` [Compound 49, 1-(4-{3-[2-(Piperidin-1-yl)ethyl]-1H-indol-1-yl}phenyl)-3-(pyridin-3-ylmethyl)urea] cannot be ordered by IC50 at 72 h: under 100 nM for the first, under 100 nM for the second.

`O=C(/C=C/c1ccc(-n2nc(C(=O)N3CCC(N4CCCCC4)CC3)c3ccccc32)cc1)NCc1cccnc1` [Compound 177, (2E)-3-{4-[3-(1,4′-Bipiperidin-1′-ylcarbonyl)-1H-indazol-1-yl]phenyl}-N-(pyridin-3-ylmethyl)prop-2-enamide] and `Cc1c(-c2ccccc2)c(C(=O)NCCCN2CCCCC2)nn1-c1ccc(NC(=O)NCc2cccnc2)cc1` [Compound 50, 5-Methyl-4-phenyl-N-[3-(piperidin-1-yl)propyl]-1-(4-{[(pyridin-3-ylmethyl)carbamoyl]ami-no}phenyl)-1H-pyrazole-3-carboxamide] cannot be ordered by IC50 at 72 h: under 100 nM for the first, under 100 nM for the second.

`O=C(NCc1cncs1)Nc1ccc(-n2cc(CCN3CCOCC3)c3ccccc32)cc1` [Compound 63, 1-(4-{3-[2-(Morpholin-4-yl)ethyl]-1H-indol-1-yl}phenyl)-3-(1,3-thiazol-5-ylmethyl) urea] and `CCOCCOCCN1CCC2(CC1)CN(c1ccc(NC(=O)NCc3cccnc3)cc1)c1ccccc12` [Compound 126, 1-(4-{1′-[2-(2-Ethoxy-ethoxy)ethyl]spiro[indole-3,4′-piperidin]-1(2H)-yl}phenyl)-3-(pyridin-3-ylmethyl)urea] cannot be ordered by IC50 at 72 h: at least 100 nM for the first, at least 100 nM for the second.

Same assay, conditions: human, HCT116 cells, 72 hours drug incubation, CellTiter-Glo luminescence; read-out: HCT116 cell cytotoxicity IC50

`Cc1c(-c2ccccc2)c(C(=O)N2CCC(N3CCCCC3)CC2)nn1-c1ccc(NC(=O)NCc2cccnc2)cc1` [Compound 73, 1-{4-[3-(1,4′-Bipiperidin-1′-ylcarbonyl)-5-methyl-4-phenyl-1H-pyrazol-1-yl]phenyl}-3-(pyridin-3-ylmethyl)urea] and `COc1cccc(-c2cn(-c3ccc(NC(=O)NCc4cccnc4)cc3)nc2C(=O)N2CCC(N3CCCCC3)CC2)c1` [Compound 85, 1-{4-[3-(1,4′-Bipiperidin-1′-ylcarbonyl)-4-(3-methoxyphenyl)-1H-pyrazol-1-yl]phenyl}-3-(pyridin-3-ylmethyl)urea] cannot be ordered by IC50 at 72 h: under 100 nM for the first, under 100 nM for the second.

`O=C(NCc1cccnc1)Nc1ccc(N2CC3(CCN(C4CCCC4)CC3)c3ccccc32)cc1` [Compound 117, 1-[4-(1′-Cyclo-pentylspiro[indole-3,4′-piperidin]-1(2H)-yl)phenyl]-3-(pyridin-3-ylmethyl)urea] and `O=C(NCc1cccnc1)Nc1ccc(-n2cc(C3CCN(C4COC4)CC3)c3ccccc32)cc1` [Compound 105, 1-(4-{3-[1-(Oxetan-3-yl)piperidin-4-yl]-1H-indol-1-yl}phenyl)-3-(pyridin-3-ylmethyl)urea] cannot be ordered by IC50 at 72 h: under 100 nM for the first, under 100 nM for the second.

`O=C(/C=C/c1ccc(-n2nc(C(=O)N3CCN(C4CCCCC4)CC3)c3ccccc32)cc1)NCc1cccnc1` [Compound 173, (2E)-3-(4-{3-[(4-Cyclohexylpiperazin-1-yl)carbonyl]-1H-indazol-1-yl}phenyl)-N-(pyridin-3-ylmethyl)prop-2-enamide] and `O=C(/C=C/c1ccc(-n2nc(C(=O)N3CCC(N4CCOCC4)CC3)c3ccccc32)cc1)NCc1cccnc1` [Compound 171, (2E)-3-[4-(3-{[4-(Morpholin-4-yl)piperidin-1-yl]carbonyl}-1H-indazol-1-yl)phenyl]-N-(pyridin-3-ylmethyl)prop-2-enamide] cannot be ordered by IC50 at 72 h: under 100 nM for the first, under 100 nM for the second.

`O=C(/C=C/c1ccc(-n2cc(CCN3CCCOCC3)c3ccccc32)cc1)NCc1cccnc1` [Compound 181, (2E)-3-(4-{3-[2-(1,4-Oxazepan-4-yl)ethyl]-1H-indol-1-yl}phenyl)-N-(pyridin-3-ylmethyl)prop-2-enamide] and `O=C(NCc1cccnc1)Nc1ccc(-n2cc(CCN3CCOCC3)c3ccccc32)cc1` [Compound 100, 1-(4-{3-[2-(Morpholin-4-yl)ethyl]-1H-indol-1-yl}phenyl)-3-(pyridin-3-ylmethyl)urea] cannot be ordered by IC50 at 72 h: under 100 nM for the first, under 100 nM for the second.

`O=C(NCCCCCCC1CNc2ccccc21)NCc1cccnc1` (stereo not shown) [Compound 97, 1-[6-(2,3-Dihydro-1H-indol-3-yl)hexyl]-3-(pyridin-3-ylmethyl)urea] and `CCOC(=O)c1cn(CCCCCNC(=O)NCc2cccnc2)c2ccccc12` [Compound 65, Ethyl 1-(5-{[(pyridin-3-ylmethyl)carbamoyl]amino}pentyl)-1H-indole-3-carboxylate] cannot be ordered by IC50 at 72 h: under 100 nM for the first, under 100 nM for the second.

`O=C(NCc1cccnc1)Nc1ccc(-n2cc(-c3nccn3CCC3CCNCC3)c3ccccc32)cc1` [Compound 60, 1-[4-(3-{1-[2-(Piperidin-4-yl)ethyl]-1H-imidazol-2-yl}-1H-indol-1-yl)phenyl]-3-(pyridin-3-ylmethyl)urea] and `CC(C)(C)OC(=O)N1CCC(CCn2ccnc2-c2cn(-c3ccc(NC(=O)NCc4cccnc4)cc3)c3ccccc23)CC1` [Compound 87, tert-Butyl 4-(2-{2-[1-(4-{[(pyridin-3-yl-methyl)carbamoyl]amino}phenyl)-1H-indol-3-yl]-1H-imidazol-1-yl}ethyl)piperidine-1-carboxylate] cannot be ordered by IC50 at 72 h: at least 100 nM for the first, under 100 nM for the second.

`O=C(Cc1ccc(-n2nc(C(=O)N3CCC(N4CCCCC4)CC3)c3ccccc32)cc1)NCc1cccnc1` [Compound 183, 2-{4-[3-(1,4′-Bipiperidin-1′-ylcarbonyl)-1H-indazol-1-yl]phenyl}-N-(pyridin-3-ylmethyl)acetamide] and `O=C(NCc1cccnc1)Nc1ccc2c(C(=O)N3CCC(N4CCCCC4)CC3)cn(Cc3ccccc3)c2c1` [Compound 68, 1-[1-Benzyl-3-(1,4′-bipiperidin-1′-yl-carbonyl)-1H-indol-6-yl]-3-(pyridin-3-ylmethyl)urea] cannot be ordered by IC50 at 72 h: under 100 nM for the first, at least 100 nM for the second.

`O=C(NCCCCCn1cc(C(=O)N2CCC(N3CCC(F)(F)CC3)CC2)c2ccccc21)NCc1cccnc1` [Compound 32, 1-(5-{3-[(4,4-Difluoro-1,4′-bipiperidin-1′-yl)carbonyl]-1H-indol-1-yl}pentyl)-3-(pyridin-3-ylmethyl)urea] and `O=C(NCCCCCn1cc(C(=O)N2CCN(C3CCCCC3)CC2)c2ccccc21)NCc1cccnc1` [Compound 116, 1-(5-{3-[(4-Cyclohexyl-piperazin-1-yl)carbonyl]-1H-indol-1-yl}pentyl)-3-(pyridin-3-ylmethyl)urea] cannot be ordered by IC50 at 72 h: under 100 nM for the first, under 100 nM for the second.

`O=C(NCc1cncc(F)c1)Nc1ccc(-n2cc(CCN3CCOCC3)c3ccccc32)cc1` [Compound 103, 1-[(5-Fluoro-pyridin-3-yl)methyl]-3-(4-{3-[2-(morpholin-4-yl)ethyl]-1H-indol-1-yl}phenyl)urea] and `O=C(NCc1cccnc1)Nc1ccc(-n2cc(-c3nccn3CCN3CCOCC3)c3ccccc32)cc1` [Compound 102, 1-[4-(3-{1-[2-(Morpholin-4-yl)ethyl]-1H-imidazol-2-yl}-1H-indol-1-yl)phenyl]-3-(pyridin-3-ylmethyl)urea] cannot be ordered by IC50 at 72 h: under 100 nM for the first, under 100 nM for the second.

`O=C(NCc1cccnc1)Nc1ccc(-n2nc(CC(=O)N3CCCCC3)c3ccccc32)cc1` [Compound 84, 1-(4-{3-[2-Oxo-2-(piperidin-1-yl)ethyl]-1H-indazol-1-yl}phenyl)-3-(pyridin-3-ylmethyl)urea] and `O=C(NCc1cccnc1)Nc1ccc(-n2cc(C3CCN(CCF)CC3)c3ccccc32)cc1` [Compound 99, 1-(4-{3-[1-(2-Fluoroethyl)piperidin-4-yl]-1H-indol-1-yl}phenyl)-3-(pyridin-3-ylmethyl)urea] cannot be ordered by IC50 at 72 h: under 100 nM for the first, under 100 nM for the second.

`O=C(NCCCCC(=O)c1cn(C2CCN(CCF)CC2)c2ccccc12)NCc1cccnc1` [Compound 39] and `CC(=O)N1CCC(n2cc(C(=O)CCCCNC(=O)NCc3cccnc3)c3ccccc32)CC1` [Compound 58, 1-{5-[1-(1-Acetylpiperidin-4-yl)-1H-indol-3-yl]-5-oxo-pentyl}-3-(pyridin-3-ylmethyl)urea] cannot be ordered by IC50 at 72 h: under 100 nM for the first, at least 100 nM for the second.

`O=C(NCCCn1cc(C(=O)NCCCN2CCCC2)c2ccccc21)NCc1cccnc1` [Compound 59, 1-(3-{[(Pyridin-3-ylmethyl)carbamoyl]amino}propyl)-N-[3-(pyrrolidin-1-yl)propyl]-1H-indole-3-carboxamide] and `O=C(NCc1cccnc1)Nc1ccc2c(c1)c(C(=O)NCCCN1CCOCC1)cn2Cc1ccccc1` [Compound 51, 1-Benzyl-N-[3-(morpholin-4-yl)propyl]-5-{[(pyridin-3-ylmethyl)carbamoyl]ami-no}-1H-indole-3-carboxamide] cannot be ordered by IC50 at 72 h: at least 100 nM for the first, at least 100 nM for the second.
